# Assay results published in publication PMC10665444, “Unveiling the potential role of natriuretic peptide receptor a isoforms in fine-tuning the cGMP production and tissue-specific function” (Scientific Reports, 2023).
# What was measured:
# [1] = tested on: WT NPR-A co-transfected with isoform 3; assay: Whole-cell cGMP assay, DLD-1 cells co-transfected with WT NPR-A and isoform 3; assay type: cell-based, rat; details: peptide 30 min, ELISA, triplicates
# Excerpt: (§1) A plasmid containing rat NPR-A in a pCMV-4 backbone, gifted by Dr. Ruey-Bing Yang (Academia Sinica), was used as the NPR-A template. All three receptor isoforms plasmids were created by modifying the NPR-A sequence in the template plasmid using Site-Directed Mutagenesis (SDM) following the protocol from the Q5® Site-Directed Mutagenesis kit. All plasmids were cloned and expanded in NEB 5 α competent cells. DNA sequencing was done to confirm the success of the SDM. Primers used to clone isoform 1 are 5’—tga ccc tga gtg ggg gca acc ttg tgg c—3’ and 5’—gcc aca agg ttg ccc cca ctc agg gtc a—3’. primers used to clone isoform 2 are 5’ –gac ggg tgc ctt cag gcc ctg cca ggt tgt cct gaa cta ta—3’ and 5’ –tat agt tca gga caa cct ggc agg gcc tga agg cac ccg tc—3’. Primers used to clone isoform 3 are 5’—gtg gag gat ggc ctg gca gtg aca gag act—3’ and 5’—agt ctc tgt cac tgc cag gcc atc ctc cac—3’.
# (§2) DLD-1 cells were cultured in complete RPMI-1640 medium supplemented with 10% HI-FBS and 1% Penicillin–Streptomycin (P/S). Cells were sub-cultured every 3 days using trypsinization. DLD-1 cells (0.2 million) were seeded per well in 24-well plates to attain near 70% confluent before transfection was performed following the manufacturer’s protocol. Plasmids of interest was incubated with lipofectamine 3000 in a 1:1 ratio before the mixture was added to the cells. For single transfection, 0.8 μ g of the plasmid of interest was used. For co-transfection, the NPR-A WT plasmid was fixed at 0.8 μ g and the receptor isoforms were mixed with the WT plasmid according to their given percentages. For 1% co-transfection, 0.8 μ g of NPR-A WT plasmid was mixed with 0.00808 μ g of receptor isoforms. […]
# (§3) Cells were transfected following the transfection protocol above and incubated for another 16 h overnight. […] Total protein content of three wells were determined using Bicinchoninic acid assay and used for normalizing across the different 24-well plates. Expression of the receptors in 3 wells were determined using Western blotting.
# NPR-A isoform 1 = assay: Whole-cell cGMP assay (competitive ELISA), DLD-1 cells transfected with NPR-A isoform 1 alone; assay type: cell-based, rat; details: IBMX 0.5 mM 30 min, then peptide 30 min
# Excerpt: as §1
# (§4) DLD-1 cells were cultured in complete RPMI-1640 medium supplemented with 10% HI-FBS and 1% Penicillin–Streptomycin (P/S). Cells were sub-cultured every 3 days using trypsinization. […]
# as §3
# NPR-A [2] = details: ANP compared with BNP; cited from earlier work
# Excerpt: They interact with three NP receptors (NPRs), namely NPR-A, NPR-B and NPR-C. Lack of NPs or their receptors have been associated with hypertension and heart failure.
# NPR-A isoform 3 = assay: Whole-cell cGMP assay (competitive ELISA), DLD-1 cells transfected with NPR-A isoform 3 alone; assay type: cell-based, rat; details: IBMX 0.5 mM 30 min, then peptide 30 min
# Excerpt: as §1, §4, §3
# [3] = tested on: WT NPR-A co-transfected with isoform 2; assay: Whole-cell cGMP assay, DLD-1 cells co-transfected with WT NPR-A and isoform 2; assay type: cell-based, rat; details: peptide 30 min, ELISA, triplicates
# Excerpt: as §1, §2, §3
# [4] = tested on: WT NPR-A co-transfected with receptor isoforms; assay: Whole-cell cGMP assay, DLD-1 cells co-transfected with WT NPR-A and isoforms (statements over more than one isoform); assay type: cell-based, rat; details: 1% co-transfection of isoform 1 and 2
# Excerpt: as §1, §4, §3
# [5] = tested on: WT NPR-A co-transfected with isoform 1; assay: Whole-cell cGMP assay, DLD-1 cells co-transfected with WT NPR-A and isoform 1; assay type: cell-based, rat; details: peptide 30 min, ELISA, triplicates
# Excerpt: as §1, §4, §3
# NPR-A [6] = details: compared with the vasodilatory analogue (DRD-ANP); cited from earlier work
# Excerpt: We evaluated the roles of three distinct amino acid residues found within the K-ring and the C-terminal and identified the residues that are responsible for these functions. […] The separation of diuretic and hemodynamic bioactivity in DRD-ANP and D ...
# NPR-A isoform 2 = assay: Whole-cell cGMP assay (competitive ELISA), DLD-1 cells transfected with NPR-A isoform 2 alone; assay type: cell-based, rat; details: IBMX 0.5 mM 30 min, then peptide 30 min
# Excerpt: as §1, §4, §3
compound,measurement,setting,value
"CC[C@H](C)[C@@H]1NC(=O)[C@H](CCCNC(=N)N)NC(=O)[C@H](CC(=O)O)NC(=O)[C@H](CCSC)NC(=O)[C@H](CCCNC(=N)N)NC(=O)CNC(=O)CNC(=O)[C@H](Cc2ccccc2)NC(=O)[C@@H](NC(=O)[C@H](CO)NC(=O)[C@H](CO)NC(=O)[C@H](CCCNC(=N)N)NC(=O)[C@H](CCCNC(=N)N)NC(=O)[C@H](CC(C)C)NC(=O)[C@@H](N)CO)CSSC[C@@H](C(=O)N[C@@H](CC(N)=O)C(=O)N[C@@H](CO)C(=O)N[C@@H](Cc2ccccc2)C(=O)N[C@@H](CCCNC(=N)N)C(=O)N[C@@H](Cc2ccc(O)cc2)C(=O)O)NC(=O)CNC(=O)[C@H](CC(C)C)NC(=O)CNC(=O)[C@H](CO)NC(=O)[C@H](CCC(N)=O)NC(=O)[C@H](C)NC(=O)CNC1=O [ANP, Atrial natriuretic peptide]",decrease in cGMP production of WT NPR-A,[1]; 1% co-transfection with isoform 3,22.6%
same,decrease in cGMP production of WT NPR-A,[1]; 10% co-transfection with isoform 3,54.3%
same,decrease in cGMP production of WT NPR-A,[1]; 50% co-transfection with isoform 3,86.2%
same,cGMP production (result in words),NPR-A isoform 1,no cGMP production was observed
same,binding affinity for NPR-A (in words),NPR-A [2],stronger binding affinity than BNP
same,cGMP production (result in words),NPR-A isoform 3,no cGMP production was observed
same,decrease in cGMP production of WT NPR-A,[3]; 1% co-transfection with isoform 2,8.0%
same,decrease in cGMP production of WT NPR-A,[3]; 10% co-transfection with isoform 2,69.8%
same,decrease in cGMP production of WT NPR-A,[3]; 50% co-transfection with isoform 2,84.1%
same,reduction in cGMP production (range over isoforms 1 and 2),[4],8–10.6%
same,decrease in cGMP production of WT NPR-A,[5]; 1% co-transfection with isoform 1,approximately 10.6%
same,decrease in cGMP production of WT NPR-A,[5]; 50% co-transfection with isoform 1,87.4%
same,rate of cGMP production (in words),NPR-A [6],produce cGMP much faster than the vasodilatory analogue (DRD-ANP)
same,cGMP production (result in words),NPR-A isoform 2,no cGMP production was observed
